The record followed here is patent US20260273028A1, “PEROXIDASE COMPOSITIONS CONTAINING IMPROVED ENHANCING AGENTS” (FLEN HEALTH PHARMA NV, priority 2022, published 2026).

Holding throughout (assay type): cell-based
Assay [1] relates to Aspergillus niger ATCC®16404™. In words: MIC determination, broth microdilution, GOX+LPO with potentiator candidate. The settings on record: A. niger. The method, then:
(§1) The minimum inhibitory concentration (MIC) is defined as the lowest concentration of an antimicrobial agent that results in a complete inhibition of microbial growth (determined via visual evaluation or absorbance measurements) after overnight incubation. This endpoint measurement is used to define the microbial susceptibility towards an antimicrobial agent. Here, the antimicrobial agent is a combination of the natural enzymes GOX+LPO.
(§2) To determine the MIC of the described combinations, a classical broth microdilution assay was used to determine the susceptibility of a series of microbes commonly detected in infected wounds, including (a) the Gram-positive bacterium Staphylococcus aureus ATCC® 6538™ (results shown below), (b) the Gram-negative bacterium Pseudomonas aeruginosa ATCC®9027™ (results shown below), (c) the yeast Candida albicans ATCC®10231™ (results shown below), and (d) the fungus Aspergillus niger ATCC®16404™ (results shown below). In brief, a […] serial dilution of the enzymatic GOX+LPO solution was prepared in a transparent, flat-bottomed 96-well test plate with final concentrations ranging from 0.005 to 0.00000977% (v/v). To each well, a fixed volume of the enzymatic substrate containing 3,3% (w/v) glucose and 0,084% (w/v) potassium iodide, as well as the microbial inoculum with an OD600 of 0.1 was added. In the event the enzyme combination was evaluated in the presence of a potentiator candidate, the latter was added together with the enzymatic substrate in a final concentration ranging from 100 to 0,00125% (v/v). For each combination evaluated, a blank (no addition of microbial inoculum) was included. Positive (inoculum only) and negative (background solution only) were included to evaluate the performance of the test and to select the enzymatic GOX+LPO concentration at which no microbial growth is detected (i.e., absorbance equal to that of the background solution only). Then, the 96-well test plate was incubated for 24 hours at 37° C. (S. aureus, P. aeruginosa and C. albicans) or 25° C. (A. niger). After incubation, the absorbance of each well was measured using a plate spectrophotometer (Spectramax ID3, Molecular Devices). For each combination evaluated, this test was repeated at least 5 times. The collected data were further analyzed in MS Excel. Mean absorbance data were visualized in a table format in which the MIC was highlighted.

Assay [2] concerns Pseudomonas aeruginosa ATCC®9027™. The assay is described as above. The settings on record: P. aeruginosa. The procedure: as §1, §2
Assay [3] has as its system Staphylococcus aureus ATCC® 6538™. The description is as above. The settings on record: S. aureus. The method, then:
as §1, §2

Another assay concerns A. niger (ATCC®16404 ™). In words: Microbial challenge testing in alginogel with GOX+LPO. The settings on record: for reduction in absolute A. niger counts compared to guaiacol in the same concentration: alginogel with GOX+LPO; for antimicrobial activity of enhancing candidate only against A. niger: alginogel without enzymes, highest concentration tested; for reduction in absolute A. niger counts compared to reference (enzymes only): alginogel, 0.0075% GOX+LPO. The method, then: (§3) To determine the ability of an antimicrobial agent to elicit an antimicrobial preserving efficacy in a gel environment, a microbiological challenge test can be performed. Here, the antimicrobial agent is a combination of the natural enzymes GOX+LPO. […] Microbial challenge testing was performed according to the method described in the European Pharmacopoeia current version chapter 5.1.3 ‘Efficacy of antimicrobial preservation’, but with adapted time points (0, 10, 20, 30, 40, 50, 60, 70 and 80 min instead of 0, 2, 7, 14 and 28 days). In brief, for every enhancing agent to be evaluated, a lab-scale alginogel (based on the Flaminal® formulation, but without the original enhancer guaiacol) including 0.0075% GOX+LPO (1:1) was prepared according to standard practices. Enhancing agents were added to the alginogel in a final concentration ranging from 0.01 to 0,00025% (v/w). As a reference, an alginogel including 0.0075% GOX+LPO (1:1) without the addition of any enhancing agent was included (designated as: enzymes only). As a control, an alginogel without both GOX+LPO (1:1) enzyme solution and enhancing agent (designated as: empty gel) as well as an alginogel only containing the enhancing agent only (designated as: enhancing candidate only) were included. After preparation, a homogenous sample of 10 g was transferred into a 50 ml conical tube for each alginogel to be evaluated and microorganism to be tested. For each test microorganism, including S. aureus (ATCC®6538™), P. aeruginosa (ATCC®9027™), C. albicans (ATCC®10231™) and A. niger (ATCC®16404 ™), a microbial suspension of about 10^8 CFU/ml was prepared in sterile diluent (buffered sodium chloride-peptone solution). Then, the 50 ml conical tubes containing the alginogel samples to be evaluated were inoculated with 100 μl of the designated inoculum. At the start (time point 0) and after 0, 10, 20, 30, 40, 50, 60, 70 and 80 min, the number of viable microorganisms per gram product (expressed as CFU/g) was determined by transferring a sample of 0.5 g of the product into a 15 ml conical tube containing 4.5 ml of sterile diluent and applying general dilution and plate count techniques. For each combination evaluated, this test was repeated at least 1-3 times. The collected data were further analyzed in MS Excel. Mean absolute counts (expressed as log CFU/g) were visualized in a graph.

Assay [4] has as its system P. aeruginosa (ATCC®9027™). Described as above. The settings on record: for antimicrobial activity of enhancing candidate only against P. aeruginosa: alginogel without enzymes, highest concentration tested; for reduction in absolute P. aeruginosa counts compared to reference (enzymes only): alginogel, 0.0075% GOX+LPO; for reduction in absolute P. aeruginosa counts compared to guaiacol in the same concentration: alginogel with GOX+LPO, enhancer 0.0005%. The method, then: as §3

Assay [5] deals with C. albicans (ATCC®10231™). The description is as above. The settings on record: for antimicrobial activity of enhancing candidate only against C. albicans: alginogel without enzymes, highest concentration tested; for reduction in absolute C. albicans counts compared to reference (enzymes only): alginogel, 0.0075% GOX+LPO; for reduction in absolute C. albicans counts compared to guaiacol in the same concentration: alginogel with GOX+LPO, enhancer 0.0005%. The method, then: as §3

In the case of `NC(=O)C[C@H](N)C(=O)O` [Asparagine, asparagine], the “MIC: GOX+LPO enzyme solution needed to completely inhibit growth” value (“MIC … to completely inhibit growth” below) in assay [1] (enhancer 1%-0.05%) was 0.000156 % (v/v); in assay [2] (enhancer 0,1%), 0.000625 % (v/v); in assay [2] (enhancer 1%), 0.000156 % (v/v); in assay [3] (enhancer 0.5% to 0.01%), 0.0000391 % (v/v). The “increase in MIC compared to reference” value in assay [1] (enhancer 1%-0.05%) was found to be 2 ×; in assay [2] (enhancer 0,1%), 2 ×; in assay [2] (enhancer 1%), 8 ×. Moreover, the “increase in MIC compared to reference or guaiacol solution” value in assay [3] (enhancer 0.5% to 0.01%) was 2 ×. Further, the “reduction in absolute A. niger counts compared to guaiacol in the same concentration” value with A. niger (ATCC®16404 ™) (enhancer 0.0005%) is reported as “faster complete reduction”. Besides, the “antimicrobial activity of enhancing candidate only against A. niger” value (“antimicrobial activity … against A. niger” for short) with A. niger (ATCC®16404 ™) is on record as “no antimicrobial activity”. Also, in the assay with A. niger (ATCC®16404 ™) (enhancer 0,0025-0,0005%), the “reduction in absolute A. niger counts compared to reference (enzymes only)” value is reported as “faster complete reduction”. The “antimicrobial activity of enhancing candidate only against P. aeruginosa” value (from here on “antimicrobial activity … against P. aeruginosa”) in assay [4] is recorded as “no antimicrobial activity”. For the same compound, the “reduction in absolute P. aeruginosa counts compared to reference (enzymes only)” value was “immediate entire reduction” in assay [4] (enhancer 0.0025%) and “faster complete reduction” in assay [4] (enhancer 0,00125%). Moreover, the “antimicrobial activity of enhancing candidate only against C. albicans” value (shortened to “antimicrobial activity … against C. albicans”) in assay [5] was “no antimicrobial activity”. The “reduction in absolute C. albicans counts compared to reference (enzymes only)” value in assay [5] (enhancer 0.00125%) is reported as “faster complete reduction”; in assay [5] (enhancer 0.0025%), “immediate entire reduction”.

Take `NC(=O)CC[C@H](N)C(=O)O` [Glutamine, glutamine]: in assay [1] (enhancer 1%-0.01%), the “MIC … to completely inhibit growth” value is listed as 0.000156 % (v/v) and the “increase in MIC compared to reference” value was 2 ×. Also, in assay [2] (enhancer 0,1%), the “MIC … to completely inhibit growth” value is reported as 0.000625 % (v/v) and the “increase in MIC compared to reference” value is 2 ×. In assay [2] (enhancer 1%), the “MIC … to completely inhibit growth” value was 0.000156 % (v/v) and the “increase in MIC compared to reference” value is reported as 8 ×. Further, in assay [3] (enhancer 1% to 0.01%), the “MIC … to completely inhibit growth” value was 0.0000391 % (v/v) and the “increase in MIC compared to reference or guaiacol solution” value is reported as 2 ×. Also, in the assay on A. niger (ATCC®16404 ™) (enhancer 0.0025%), the “reduction in absolute A. niger counts compared to guaiacol in the same concentration” value is “faster complete reduction” and the “reduction in absolute A. niger counts compared to reference (enzymes only)” value is given as “faster complete reduction”. In the assay with A. niger (ATCC®16404 ™), the “antimicrobial activity … against A. niger” value is “no antimicrobial activity”. Moreover, in assay [4], the “reduction in absolute P. aeruginosa counts compared to guaiacol in the same concentration” value is listed as “faster complete reduction” and the “antimicrobial activity … against P. aeruginosa” value is “no antimicrobial activity”. Moreover, the “reduction in absolute P. aeruginosa counts compared to reference (enzymes only)” value in assay [4] (enhancer 0.00125-0.0005%) was “faster complete reduction”. Further, the “reduction in absolute P. aeruginosa counts compared to reference (enzymes only)” value in assay [4] (enhancer 0.0025%) is given as “immediate entire reduction”. Besides, in assay [5], the “reduction in absolute C. albicans counts compared to guaiacol in the same concentration” value is given as “faster complete reduction” and the “antimicrobial activity … against C. albicans” value is on record as “no antimicrobial activity”. The “reduction in absolute C. albicans counts compared to reference (enzymes only)” value in assay [5] (enhancer 0.0025%) is reported as “immediate entire reduction”. For the same compound, the “reduction in absolute C. albicans counts compared to reference (enzymes only)” value in assay [5] (enhancer 0,00125-0,0005%) was “faster complete reduction”.

Turning to `CC[C@H](C)[C@H](N)C(=O)O` [Isoleucine, isoleucine], the “MIC … to completely inhibit growth” value in assay [1] (enhancer 1%-0.005%) is on record as 0.000156 % (v/v); in assay [2] (enhancer 0,1%) it was 0.000625 % (v/v); in assay [2] (enhancer 1%) it was 0.000156 % (v/v); in assay [3] (enhancer 0.0025% to 0.00125%), 0.0000391 % (v/v); in assay [3] (enhancer 0.5% to 0.005%) it was 0.0000391 % (v/v). Moreover, the entries for the “increase in MIC compared to reference” value in assay [1] (enhancer 1%-0.005%), in assay [2] (enhancer 0,1%) and in assay [2] (enhancer 1%) were 2 ×, 2 × and 8 ×, respectively. In addition, the “increase in MIC compared to reference or guaiacol solution” value in assay [3] (enhancer 0.0025% to 0.00125%) and in assay [3] (enhancer 0.5% to 0.005%) was 2 × in each case. In addition, in the assay on A. niger (ATCC®16404 ™) (enhancer 0.0005%), the “reduction in absolute A. niger counts compared to guaiacol in the same concentration” value is given as “faster complete reduction”. Besides, the “antimicrobial activity … against A. niger” value in the assay on A. niger (ATCC®16404 ™) is reported as “no antimicrobial activity”. The “reduction in absolute A. niger counts compared to reference (enzymes only)” value in the assay with A. niger (ATCC®16404 ™) (enhancer 0,0025-0,0005%) was “faster complete reduction”. The “reduction in absolute P. aeruginosa counts compared to guaiacol in the same concentration” value in assay [4] was “faster complete reduction”. For the same compound, the “antimicrobial activity … against P. aeruginosa” value in assay [4] is reported as “no antimicrobial activity”. Further, the results for the “reduction in absolute P. aeruginosa counts compared to reference (enzymes only)” value in assay [4] (enhancer 0.00125-0.0005%) and in assay [4] (enhancer 0.0025%) were “faster complete reduction” and “immediate entire reduction”, respectively. Moreover, in assay [5], the “reduction in absolute C. albicans counts compared to guaiacol in the same concentration” value is “faster complete reduction”. In addition, the “antimicrobial activity … against C. albicans” value in assay [5] was “no antimicrobial activity”. Also, the “reduction in absolute C. albicans counts compared to reference (enzymes only)” value in assay [5] (enhancer 0.0025%) is listed as “immediate entire reduction”; in assay [5] (enhancer 0,00125-0,0005%), “faster complete reduction”.
